Data from PubChem BioAssay AID1259407 (Chemical Carcinogenesis Research Information System (CCRIS), 2018).
Calls of active or inactive are those of the source. No rule for the calls is given here.

Test system: CCRIS mutagenicity, Ames/micronucleus/aberration tests
Assay: CCRIS mutagenicity studies
[1] = Test System: AMES SALMONELLA TYPHIMURIUM, Strain/Indicator: TA98, Metabolic Activation: NONE, Method: STANDARD PLATE
[2] = Test System: AMES SALMONELLA TYPHIMURIUM, Strain/Indicator: TA100, Metabolic Activation: NONE, Method: STANDARD PLATE
[3] = Test System: AMES SALMONELLA TYPHIMURIUM, Strain/Indicator: TA98, Metabolic Activation: RAT, LIVER, S-9, AROCLOR 1254, Method: STANDARD PLATE

**Q.** Which mutagenic call (Test System: AMES SALMONELLA TYPHIMURIUM, Strain/Indicator: TA98, Metabolic Activation: HAMSTER LIVER S-9, AROCLOR 1254 (10%), Method: PREINCUBATION) does the source give for `OCc1ccco1` here?
**A.** Its mutagenic call is “inactive; negative”.

**Q.** And the mutagenic call (Test System: AMES SALMONELLA TYPHIMURIUM, Strain/Indicator: TA98, Metabolic Activation: NONE, Method: PREINCUBATION)?
**A.** The mutagenic call was “inactive; negative”.

**Q.** And the mutagenic call [1]?
**A.** The mutagenic call was “inactive; negative”.

**Q.** And the mutagenic call (Test System: AMES SALMONELLA TYPHIMURIUM, Strain/Indicator: TA98, Metabolic Activation: RAT LIVER S-9, AROCLOR 1254 (10%), Method: PREINCUBATION)?
**A.** The mutagenic call was “inactive; negative”.

**Q.** What about the mutagenic call (Test System: AMES SALMONELLA TYPHIMURIUM, Strain/Indicator: TA98, Metabolic Activation: RAT, LIVER, S-9, AROCLOR 1254, Method: PREINCUBATION) of the same compound?
**A.** The mutagenic call was “inactive; negative”.

**Q.** What about the mutagenic call (Test System: AMES SALMONELLA TYPHIMURIUM, Strain/Indicator: TA98, Metabolic Activation: S-9, Method: STANDARD PLATE) of the same compound?
**A.** Its mutagenic call is “inactive; negative”.

**Q.** What about the mutagenic call (Test System: AMES SALMONELLA TYPHIMURIUM, Strain/Indicator: TA100, Metabolic Activation: HAMSTER LIVER S-9, AROCLOR 1254 (10%), Method: PREINCUBATION) of the same compound?
**A.** Its mutagenic call is “inactive; negative”.

**Q.** And the mutagenic call (Test System: AMES SALMONELLA TYPHIMURIUM, Strain/Indicator: TA100, Metabolic Activation: NONE, Method: PREINCUBATION)?
**A.** Its mutagenic call is “inactive; negative”.

**Q.** What about the mutagenic call [2] of the same compound?
**A.** Its mutagenic call is “inactive; negative”.

**Q.** And the mutagenic call (Test System: AMES SALMONELLA TYPHIMURIUM, Strain/Indicator: TA100, Metabolic Activation: RAT LIVER S-9, AROCLOR 1254 (10%), Method: PREINCUBATION)?
**A.** The mutagenic call was “inactive; negative”.

**Q.** What about the mutagenic call (Test System: AMES SALMONELLA TYPHIMURIUM, Strain/Indicator: TA100, Metabolic Activation: RAT, LIVER, S-9, AROCLOR 1254, Method: PREINCUBATION) of the same compound?
**A.** Its mutagenic call is “inactive; negative”.

**Q.** What about the mutagenic call (Test System: AMES SALMONELLA TYPHIMURIUM, Strain/Indicator: TA100, Metabolic Activation: S-9, Method: STANDARD PLATE) of the same compound?
**A.** The mutagenic call was “inactive; negative”.

**Q.** And the mutagenic call (Test System: AMES SALMONELLA TYPHIMURIUM, Strain/Indicator: TA102, Metabolic Activation: NONE, Method: PREINCUBATION)?
**A.** Its mutagenic call is “inactive; negative”.

**Q.** And the mutagenic call (Test System: AMES SALMONELLA TYPHIMURIUM, Strain/Indicator: TA102, Metabolic Activation: RAT, LIVER, S-9, AROCLOR 1254, Method: PREINCUBATION)?
**A.** Its mutagenic call is “inactive; negative”.

**Q.** And the mutagenic call (Test System: AMES SALMONELLA TYPHIMURIUM, Strain/Indicator: TA1535, Metabolic Activation: HAMSTER LIVER S-9, AROCLOR 1254 (10%), Method: PREINCUBATION)?
**A.** The mutagenic call was “inactive; negative”.

**Q.** What about the mutagenic call (Test System: AMES SALMONELLA TYPHIMURIUM, Strain/Indicator: TA1535, Metabolic Activation: NONE, Method: PREINCUBATION) of the same compound?
**A.** Its mutagenic call is “inactive; negative”.

**Q.** And the mutagenic call (Test System: AMES SALMONELLA TYPHIMURIUM, Strain/Indicator: TA1535, Metabolic Activation: RAT LIVER S-9, AROCLOR 1254 (10%), Method: PREINCUBATION)?
**A.** Its mutagenic call is “inactive; negative”.

**Q.** What about the mutagenic call (Test System: AMES SALMONELLA TYPHIMURIUM, Strain/Indicator: TA1537, Metabolic Activation: HAMSTER LIVER S-9, AROCLOR 1254 (10%), Method: PREINCUBATION) of the same compound?
**A.** The mutagenic call was “inactive; negative”.

**Q.** And the mutagenic call (Test System: AMES SALMONELLA TYPHIMURIUM, Strain/Indicator: TA1537, Metabolic Activation: NONE, Method: PREINCUBATION)?
**A.** Its mutagenic call is “inactive; negative”.

**Q.** What about the mutagenic call (Test System: AMES SALMONELLA TYPHIMURIUM, Strain/Indicator: TA1537, Metabolic Activation: RAT LIVER S-9, AROCLOR 1254 (10%), Method: PREINCUBATION) of the same compound?
**A.** Its mutagenic call is “inactive; negative”.

**Q.** With `Cc1cc2c(nc(N)n2C)c2nccnc12` as the compound, how does the mutagenic call [3] read?
**A.** The mutagenic call was “active; positive”.

**Q.** How did the mutagenic call (End Point: IN VITRO CHROMOSOMAL ABERRATIONS, Test System: CHINESE HAMSTER OVARY CELLS, Metabolic Activation: NONE) turn out when `COc1cc2c(c(OC)c1OC)-c1ccc(OC)c(=O)cc1[C@@H](NC(C)=O)CC2` was run?
**A.** The mutagenic call was “active; positive (ploidy changes)”.

**Q.** And the mutagenic call (End Point: IN VITRO CHROMOSOMAL ABERRATIONS, Test System: CHINESE HAMSTER OVARY CELLS, Metabolic Activation: RAT, LIVER, S-9, AROCLOR 1254)?
**A.** The mutagenic call was “inactive; negative”.

**Q.** And the mutagenic call (End Point: IN VITRO MICRONUCLEUS, Test System: CHL/IU CELLS, Metabolic Activation: NONE)?
**A.** Its mutagenic call is “active; positive”.

**Q.** What about the mutagenic call (End Point: IN VIVO MICRONUCLEUS, Test System: BLOOD ERYTHROCYTES, Species: MOUSE, Strain/Sex: CD-1/MALE, Route: ORAL) of the same compound?
**A.** The mutagenic call was “active; positive”.

**Q.** And the mutagenic call (End Point: In vitro micronucleus, Test System: Mouse lymphoma L5178Y cells, Metabolic Activation: None)?
**A.** The mutagenic call was “active; positive”.

**Q.** What about the mutagenic call (End Point: In vivo micronucleus, Test System: Micronucleated, binucleated and multinucleated hepatocytes, Species: Mouse, Strain/Sex: ddY/Male, Route: Intravenous) of the same compound?
**A.** Its mutagenic call is “active; positive for binucleated and multinucleated cells when agent administered after”.

**Q.** And the mutagenic call (Test System: AMES SALMONELLA TYPHIMURIUM, Strain/Indicator: TA98, Metabolic Activation: HAMSTER, LIVER, S-9, AROCLOR 1254, Method: STANDARD PLATE)?
**A.** The mutagenic call was “inactive; negative”.

**Q.** And the mutagenic call [1]?
**A.** Its mutagenic call is “inactive; negative”.

**Q.** What about the mutagenic call [3] of the same compound?
**A.** Its mutagenic call is “inactive; negative”.

**Q.** What about the mutagenic call (Test System: AMES SALMONELLA TYPHIMURIUM, Strain/Indicator: TA100, Metabolic Activation: HAMSTER, LIVER, S-9, AROCLOR 1254, Method: STANDARD PLATE) of the same compound?
**A.** The mutagenic call was “inactive; negative”.

**Q.** And the mutagenic call [2]?
**A.** The mutagenic call was “inactive; negative”.

**Q.** What about the mutagenic call (Test System: AMES SALMONELLA TYPHIMURIUM, Strain/Indicator: TA100, Metabolic Activation: RAT, LIVER, S-9, AROCLOR 1254, Method: STANDARD PLATE) of the same compound?
**A.** Its mutagenic call is “inactive; negative”.

**Q.** And the mutagenic call (Test System: AMES SALMONELLA TYPHIMURIUM, Strain/Indicator: TA1535, Metabolic Activation: HAMSTER, LIVER, S-9, AROCLOR 1254, Method: STANDARD PLATE)?
**A.** The mutagenic call was “inactive; negative”.

**Q.** What about the mutagenic call (Test System: AMES SALMONELLA TYPHIMURIUM, Strain/Indicator: TA1535, Metabolic Activation: NONE, Method: STANDARD PLATE) of the same compound?
**A.** The mutagenic call was “inactive; negative”.

**Q.** What about the mutagenic call (Test System: AMES SALMONELLA TYPHIMURIUM, Strain/Indicator: TA1535, Metabolic Activation: RAT, LIVER, S-9, AROCLOR 1254, Method: STANDARD PLATE) of the same compound?
**A.** The mutagenic call was “inactive; negative”.

**Q.** What about the mutagenic call (Test System: AMES SALMONELLA TYPHIMURIUM, Strain/Indicator: TA1537, Metabolic Activation: HAMSTER, LIVER, S-9, AROCLOR 1254, Method: STANDARD PLATE) of the same compound?
**A.** The mutagenic call was “inactive; negative”.

**Q.** And the mutagenic call (Test System: AMES SALMONELLA TYPHIMURIUM, Strain/Indicator: TA1537, Metabolic Activation: NONE, Method: STANDARD PLATE)?
**A.** Its mutagenic call is “inactive; negative”.

**Q.** And the mutagenic call (Test System: AMES SALMONELLA TYPHIMURIUM, Strain/Indicator: TA1537, Metabolic Activation: RAT, LIVER, S-9, AROCLOR 1254, Method: STANDARD PLATE)?
**A.** The mutagenic call was “inactive; negative”.

**Q.** And the mutagenic call (Test System: AMES SALMONELLA TYPHIMURIUM, Strain/Indicator: TA1538, Metabolic Activation: HAMSTER, LIVER, S-9, AROCLOR 1254, Method: STANDARD PLATE)?
**A.** Its mutagenic call is “inactive; negative”.

**Q.** And the mutagenic call (Test System: AMES SALMONELLA TYPHIMURIUM, Strain/Indicator: TA1538, Metabolic Activation: NONE, Method: STANDARD PLATE)?
**A.** The mutagenic call was “inactive; negative”.

**Q.** And the mutagenic call (Test System: AMES SALMONELLA TYPHIMURIUM, Strain/Indicator: TA1538, Metabolic Activation: RAT, LIVER, S-9, AROCLOR 1254, Method: STANDARD PLATE)?
**A.** The mutagenic call was “inactive; negative”.

**Q.** And the mutagenic call (Test System: MOUSE LYMPHOMA, Strain/Indicator: L5178Y (TK+/TK-), Metabolic Activation: NONE)?
**A.** The mutagenic call was “active; positive”.

**Q.** And the mutagenic call (Test System: MOUSE LYMPHOMA, Strain/Indicator: L5178Y (TK+/TK-), Metabolic Activation: NONE, Method: SUSPENSION/PLATE)?
**A.** The mutagenic call was “inactive; negative. reevaluation of results: negative”.

**Q.** What about the mutagenic call (Test System: MOUSE LYMPHOMA, Strain/Indicator: L5178Y (TK+/TK-), Metabolic Activation: RAT, LIVER, S-9, AROCLOR 1254, Method: SUSPENSION/PLATE) of the same compound?
**A.** The mutagenic call was “inactive; negative. reevaluation of results: negative”.

**Q.** What about the mutagenic call (Test System: MOUSE LYMPHOMA, Strain/Indicator: L5178Y(TK+/TK-), Metabolic Activation: NONE, Method: MICROWELL) of the same compound?
**A.** Its mutagenic call is “active; positive”.

**Q.** And the mutagenic call (Test System: Mouse lymphoma, Strain/Indicator: L5178Y (tk+/tk-)/Trifluorothymidine, Metabolic Activation: None, Method: Microtiter)?
**A.** Its mutagenic call is “inactive; negative”.
